For assay [1], the system named is Staphylococcus aureus ATCC12600. The assay can be described thus: MIC assay, wild type S. aureus ATCC 12600. It counts as cell-based.
For another assay, the system named is M. tuberculosis H37Rv. The assay can be described thus: Antibiotic assay against Mycobacterium tuberculosis (IC90). It counts as cell-based. Particulars: for MIC: read-out: IC90 (footnote a; column head MIC).
The test system of assay [2] is Staphylococcus aureus USA100. Kind of assay: MIC assay, S. aureus USA100.
Method: (§1) Minimum Inhibitory Concentration (MIC) and Minimal Bactericidal Concentration (MBC) Assays. […] Specifically, overnight cultures in an appropriate broth (e.g., Luria Bertani, Mueller-Hinton II) were diluted to 5×10^5 cfu/mL and used to fill wells of a 96-well plate. […] The plates were incubated on a shaker (200 rpm) at 35-37° C. for 18-20 hours, and then the optical density was measured at 595 nm on a microplate reader.
For assay [3], the system named is Staphylococcus aureus USA200. Kind of assay: MIC assay, S. aureus USA200.
Method: as §1
The test system of assay [4] is Staphylococcus aureus USA800. The assay can be described thus: MIC assay, S. aureus USA800.
Method: as §1
The subject of assay [5] is Staphylococcus aureus ATCC BAA-42. Kind of assay: MIC assay, S. aureus ATCC BAA-42.
Method: as §1
Assay [6] has as its system Staphylococcus aureus ATCC BAA-1721. Kind of assay: MIC assay, S. aureus ATCC BAA-1721.
Method: as §1
In assay [7] the test system is Salmonella enterica IR715. Kind of assay: MIC assay, Salmonella enterica IR715.
Method: (§2) Minimum Inhibitory Concentration (MIC) and Minimal Bactericidal Concentration (MBC) Assays. […] Specifically, overnight cultures in an appropriate broth (e.g., Luria Bertani, Mueller-Hinton II) were diluted to 5×10^5 cfu/mL and used to fill wells of a 96-well plate. […] The plates were incubated on a shaker (200 rpm) at 35-37° C. for 18-20 hours, and then the optical density was measured at 595 nm on a microplate reader. Samples of each well without visible growth were diluted and spread on LB agar petri dishes. The petri dishes were incubated overnight at 37° C., and the colonies were counted.
In assay [8] the test system is Staphylococcus aureus NCTC 8325 pT181. The assay can be described thus: MIC assay, S. aureus NCTC 8325 pT181.
Method: as §1
Assay [9] relates to Enterococcus faecium Com15. Kind of assay: MIC assay, Enterococcus faecium Com15.
Method: as §1
The test system of assay [10] is Proteus mirabilis ATCC29906. The assay can be described thus: MIC assay, Proteus mirabilis ATCC29906.
Method: as §2
Assay [11] relates to Pseudomonas aeruginosa PAO1. The assay can be described thus: MIC assay, Pseudomonas aeruginosa PAO1.
Method: as §1
In assay [12] the test system is Listeria monocytogenes ATCC15313. The assay can be described thus: MIC assay, Listeria monocytogenes ATCC15313.
Method: as §1
Assay [13] concerns Staphylococcus epidermidis RP62A. The assay can be described thus: MIC assay, Staphylococcus epidermidis RP62A.
Method: as §1
Assay [14] concerns Acinetobacter baumannii ATCC17978. The assay can be described thus: MIC assay, Acinetobacter baumannii ATCC17978.
Method: as §2
The subject of assay [15] is S. aureus ATCC 12600 D471Y mutant strain.
Assay [16] shares this test system. Kind of assay: microbe, parasite or virus in culture. Particulars: Staphylococcus aureus, ATCC12600.
Assay [17] deals with rifamycin resistant S. aureus strains carrying RNAP mutations. The assay can be described thus: Activity against rifamycin resistant S. aureus strains carrying RNAP mutations. The conditions noted are these: FIG. 6D.
The target in assay [18] is T1, S447L mutant DNA-dependent RNA polymerase from Mycobacterium smegmatis (Mycolicibacterium smegmatis, UniProt P60281, S447L).
T1 construct: made in house
It counts as biochemical. Particulars: S447L M. smegmatis RNAP mutant.

The mark [19] stands for this setting: Mycobacterium tuberculosis H37Rv, Table 5.
Where [20] appears, read: Mycobacterium tuberculosis, H37RV.
[21] abbreviates: Staphylococcus aureus, ATCCBAA42.
Setting [22] is: Staphylococcus aureus, ATCCBAA1721.
[23] abbreviates: Staphylococcus aureus, NCTC8325.

Results on four molecules are retold here after patent publication US11325920B2, “Antibacterial compounds, compositions thereof, and methods using same” (The Rockefeller University, priority 2018, dated 2022).

For orientation: IC90 means the concentration needed for an effect of 90%.

Structures are written as SMILES. ≈ marks a conversion by molar mass, not a printed value. Where two headings read alike, the source gives them in different places.

`CC(=O)O[C@@H]1[C@@H](C)[C@@H](O)[C@@H](C)[C@@H](O)[C@@H]([C@@H](C)OC(=O)C(C)(C)CC(=O)O)/C=C/C=C(\C)C(=O)NC2=CC(=O)c3c(c(O)c(C)c4c3C(=O)[C@](C)(O/C=C/[C@H](O[C@@H]3C[C@@H]5OCO[C@@H]5[C@H](C)O3)[C@H]1C)O4)C2=O` [Kang A, kanglemycin A, reference compound]: the MIC is 0.62 µg/mL (≈ 0.631 µM) in assay [1]; 1.0 µg/mL (≈ 1.02 µM) in assay [2]; 2.0 µg/mL (≈ 2.04 µM) in [3]; 0.5 µg/mL (≈ 0.509 µM) in [4]; 1.0 µg/mL (≈ 1.02 µM) in [5] (Staphylococcus aureus ATCC BAA-42); 2.0 µg/mL (≈ 2.04 µM) in assay [6] (Staphylococcus aureus ATCC BAA-1721). Besides, the MIC in [7] was >64 µg/mL; in assay [8] (Staphylococcus aureus NCTC 8325 pT181), 0.25 µg/mL (≈ 0.255 µM); in assay [9] (Enterococcus faecium Com15), 64 µg/mL (≈ 65.2 µM); in [10], >64 µg/mL; in assay [11], 64 µg/mL (≈ 65.2 µM); in assay [12], 2.0 µg/mL (≈ 2.04 µM). For the same molecule, the MIC in assay [13] was 0.25 µg/mL (≈ 0.255 µM); in assay [14], >64 µg/mL. Moreover, the 90% effect concentration (IC90) with M. tuberculosis H37Rv (M. tuberculosis H37Rv, read-out: IC90) amounted to 12.5 µM. Also, the “IC90 (footnote a; column head MIC)” value in the assay on M. tuberculosis H37Rv (setting [19]) was determined as 13 µg/mL (≈ 13.2 µM).

Consider `CC(=O)OC1C(C)C(OC2CC3OCOC3C(C)O2)/C=C/OC2(C)CC(O)c3c(c(C)c(O)c4c3C(=O)C=C(NC(=O)/C(C)=C\C=C\C(C(C)OC(=O)C(C)(C)CC(=O)O)C(O)C(C)C(O)C1C)C4=O)O2` (stereo not drawn) [Kang V1, kanglemycin V1], for which the MIC came to 0.069 µg/mL (≈ 0.0691 µM) in assay [1]; 3.1 µg/mL (≈ 3.11 µM) in the assay with M. tuberculosis H37Rv (setting [19]); 0.13 µg/mL (≈ 0.13 µM) in assay [2]; 0.25 µg/mL (≈ 0.25 µM) in assay [3]; 0.063 µg/mL (≈ 0.0631 µM) in assay [4]; 0.13 µg/mL (≈ 0.13 µM) in assay [5] (setting [21]). The MIC was 0.063 µg/mL (≈ 0.0631 µM) in assay [6] (setting [22]); > 64 µg/mL in [7]; 0.063 µg/mL (≈ 0.0631 µM) in assay [8] (setting [23]); 32 µg/mL (≈ 32.1 µM) in assay [9] (Enterococcus faecium, COM15); 0.069 µg/mL (≈ 0.0691 µM) in [16]; > 64 µg/mL in [10]. For the same molecule, the MIC in [11] was 64 µg/mL (≈ 64.1 µM); in assay [12], 1 µg/mL (≈ 1 µM); in assay [13] it was 0.031 µg/mL (≈ 0.0311 µM); in [14], > 64 µg/mL. This molecule gave a concentration for an effect of 90% (IC90) in the assay on M. tuberculosis H37Rv (setting [20]) of 3.12 µM. Besides, the “fold lower MIC than rifampicin” value in assay [15] was ~80 fold. Besides, in assay [17], the “activity against rifamycin resistant S. aureus strains” value was “active”.

As to `CC(=O)OC1C(C)C(OC2CC3OCOC3C(C)O2)/C=C/OC2(C)OC3=C(C)C(=O)c4c(O)c(cc5c4C3=C2OCO5)NC(=O)/C(C)=C\C=C\C(C(C)OC(=O)C(C)(C)CC(=O)O)C(O)C(C)C(O)C1C` (stereo not drawn) [Kang V2, kanglemycin V2], the MIC was 0.62 µg/mL (≈ 0.622 µM) in assay [1]; 1.6 µg/mL (≈ 1.61 µM) with M. tuberculosis H37Rv (setting [19]); 1 µg/mL (≈ 1 µM) in assay [2]; 2 µg/mL (≈ 2.01 µM) in assay [3]; 1 µg/mL (≈ 1 µM) in [4]; 1 µg/mL (≈ 1 µM) in assay [5] (setting [21]). Also, the MIC in assay [6] (setting [22]) is 0.25 µg/mL (≈ 0.251 µM); in assay [7], > 64 µg/mL; in assay [8] (setting [23]), 0.25 µg/mL (≈ 0.251 µM); in assay [9] (Enterococcus faecium, COM15), 64 µg/mL (≈ 64.3 µM); in assay [10], > 64 µg/mL; in assay [11], 64 µg/mL (≈ 64.3 µM). The MIC is 1 µg/mL (≈ 1 µM) in assay [12], 0.25 µg/mL (≈ 0.251 µM) in [13] and > 64 µg/mL in assay [14]. The molecule also showed a concentration for an effect of 90% (IC90) in the assay on M. tuberculosis H37Rv (setting [20]) of 1.56 µM. In addition, the “in vitro activity against RNAP (run-off transcription)” value in [18] is reported as “highest potency”. In assay [17], the “activity against rifamycin resistant S. aureus strains” value was “active”.

For the molecule `CO[C@H]1/C=C/O[C@@]2(C)Oc3c(C)c(O)c4c(O)c(c(/C=N/N5CCN(C)CC5)c(O)c4c3C2=O)NC(=O)/C(C)=C\C=C\[C@H](C)[C@H](O)[C@@H](C)[C@@H](O)[C@@H](C)[C@H](OC(C)=O)[C@@H]1C` [Rifampicin, rifampicin, reference compound], the MIC in assay [1] (read-out: MIC) was determined as 0.023 µg/mL (≈ 0.0279 µM); with M. tuberculosis H37Rv (setting [19]), 0.2 µg/mL (≈ 0.243 µM); in [2] it was 0.0078 µg/mL (≈ 0.00948 µM); in assay [3], 0.0078 µg/mL (≈ 0.00948 µM); in assay [4], 0.016 µg/mL (≈ 0.0194 µM); in assay [5] (setting [21]) it was 0.016 µg/mL (≈ 0.0194 µM). Also, the MIC in [6] (setting [22]) turned out to be 0.0078 µg/mL (≈ 0.00948 µM); in assay [8] (setting [23]), 0.031 µg/mL (≈ 0.0377 µM); in assay [9] (Enterococcus faecium, COM15), 4 µg/mL (≈ 4.86 µM); in assay [16] it was 5.6 µg/mL (≈ 6.8 µM); in assay [11], 32 µg/mL (≈ 38.9 µM); in [12], 0.031 µg/mL (≈ 0.0377 µM). Also, the MIC in [13] was 0.016 µg/mL (≈ 0.0194 µM).
